For 18 compounds, IC50, Activity and inhibition results are on record in ChEMBL document CHEMBL3804780, “Protective effect of novel substituted nicotine hydrazide analogues against hypoxic brain injury in neonatal rats via inhibition of caspase” (Bioorg Med Chem Lett, 2016).

The source made the active and inactive calls. No cut-off for these calls is given here. Bounds are passed on as bounds.

One assay addresses T1, Caspase-3 (Homo sapiens, UniProt P42574).
T1 sequence (P42574 whole entry): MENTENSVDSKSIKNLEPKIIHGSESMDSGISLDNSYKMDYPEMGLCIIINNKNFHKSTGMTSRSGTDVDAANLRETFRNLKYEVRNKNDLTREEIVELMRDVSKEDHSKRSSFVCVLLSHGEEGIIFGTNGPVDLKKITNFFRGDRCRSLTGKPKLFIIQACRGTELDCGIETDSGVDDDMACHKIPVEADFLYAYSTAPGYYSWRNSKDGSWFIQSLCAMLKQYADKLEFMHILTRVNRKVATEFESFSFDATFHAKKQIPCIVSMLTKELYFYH
Description: Inhibition of His-tagged human recombinant caspase 3 expressed in Escherichia coli using acetyl-Asp-Glu-Val-Asp-7- amido-4-methylcoumarin (Ac-DEVD-AMC) as substrate by fluorimetric assay.

Another assay concerns the target T2, Caspase-7 (Homo sapiens, UniProt P55210).
T2 sequence (P55210 whole entry): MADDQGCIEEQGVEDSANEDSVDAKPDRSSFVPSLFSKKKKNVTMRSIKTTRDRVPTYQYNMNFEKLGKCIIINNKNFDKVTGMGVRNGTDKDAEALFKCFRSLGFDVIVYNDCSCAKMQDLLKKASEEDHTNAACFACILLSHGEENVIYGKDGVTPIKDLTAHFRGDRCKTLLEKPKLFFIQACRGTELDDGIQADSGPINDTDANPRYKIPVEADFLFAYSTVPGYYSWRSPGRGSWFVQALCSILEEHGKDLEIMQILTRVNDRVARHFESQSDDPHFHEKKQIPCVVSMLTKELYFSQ
Description: Inhibition of His-tagged human recombinant caspase 7 expressed in Escherichia coli using acetyl-Asp-Glu-Val-Asp-7- amido-4-methylcoumarin (Ac-DEVD-AMC) as substrate by fluorimetric assay.

Assay [1] has as its system Rattus norvegicus. Description: Neuroprotective activity in hypoxic-ischemia-induced neonatal Sprague-Dawley rat brain assessed as reduction brain infarction at 10 mg/kg, ip administered 15 mins prior to examination by microscopic analysis. The format is functional, organism-based.
The test system of assay [2] is Rattus norvegicus. Description: Neuroprotective activity in hypoxic-ischemia-induced neonatal Sprague-Dawley rat brain assessed as reduction brain infarction at 20 mg/kg, ip administered 15 mins prior to examination by microscopic analysis. The format is functional, organism-based.
Assay [3] has as its system Rattus norvegicus. As to the kind of experiment: Neuroprotective activity in hypoxic-ischemic-induced neonatal Sprague-Dawley rat brain assessed as reduction brain infarction at 30 mg/kg, ip administered 15 mins prior to examination by microscopic analysis. The format is functional, organism-based.
Assay [4] has as its system Rattus norvegicus. Description: Neuroprotective activity in hypoxic-ischemic neonatal Sprague-Dawley rat brain assessed as distribution of neurons in cortex at 30 mg/kg, ip administered 15 mins prior to examination measured after 48 hrs by hematoxylin/eosin staining based microscopic analysis. The format is functional, organism-based.
Assay [5] deals with Rattus norvegicus. As to the kind of experiment: Neuroprotective activity in hypoxic-ischemic Sprague-Dawley rat brain assessed as regular shape of nucleus at 30 mg/kg, ip administered 15 mins prior to examination measured after 48 hrs by transmission electron microscopic analysis. The assay is classed as functional, organism-based.
Assay [6] relates to Rattus norvegicus. As to the kind of experiment: Neuroprotective activity in hypoxic-ischemic Sprague-Dawley rat brain assessed as reduction in disruption of cell organelles at 30 mg/kg, ip administered 15 mins prior to examination measured after 48 hrs by transmission electron microscopic analysis. The assay is classed as functional, organism-based.
The test system of assay [7] is Rattus norvegicus. Description: Neuroprotective activity in hypoxic-ischemic ip dosed neonatal Sprague-Dawley rat brain assessed as decrease in MDA levels administered 15 mins prior to examination measured after 48 hrs by thiobarbituric acid method. The format is functional, organism-based.
The test system of assay [8] is Rattus norvegicus. As to the kind of experiment: Neuroprotective activity in hypoxic-ischemic ip dosed neonatal Sprague-Dawley rat brain assessed as increase in SOD levels administered 15 mins prior to examination measured after 48 hrs by microplate reader based method. The format is functional, organism-based.
In assay [9] the test system is Rattus norvegicus. Description: Neuroprotective activity in hypoxic-ischemic ip dosed neonatal Sprague-Dawley rat brain assessed as increase in GSH-Px levels administered 15 mins prior to examination measured after 48 hrs by microplate reader based method. The format is functional, organism-based.
In assay [10] the test system is Rattus norvegicus. Description: Neuroprotective activity in hypoxic-ischemic ip dosed neonatal Sprague-Dawley rat brain assessed as increase in CAT levels administered 15 mins prior to examination measured after 48 hrs by microplate reader based method. The format is functional, organism-based.
The subject of assay [11] is Rattus norvegicus. As to the kind of experiment: Neuroprotective activity in hypoxic-ischemic ip dosed neonatal Sprague-Dawley rat brain assessed as increase in T-AOC levels administered 15 mins prior to examination measured after 48 hrs by microplate reader based method. The format is functional, organism-based.
Assay [12] deals with Rattus norvegicus. As to the kind of experiment: Neuroprotective activity in hypoxic-ischemic neonatal Sprague-Dawley rat brain assessed as reduction in interstitial edema at 30 mg/kg, ip administered 15 mins prior to examination measured after 48 hrs by hematoxylin/eosin staining based microscopic analysis. The format is functional, organism-based.
The species entered for assay [13] is Rattus norvegicus. As to conditions: Sprague-Dawley, Brain, 30 mg/kg.
Description: Neuroprotective activity in hypoxic-ischemic neonatal Sprague-Dawley rat brain assessed as inhibition of elevated caspase 3 expression levels at 30 mg/kg, ip administered 15 mins prior to examination measured after 48 hrs by Western blot analysis

One may read the IC50 as the midpoint of a concentration-inhibition curve. As to `Cc1nc(-c2cccc([N+](=O)[O-])c2)ccc1C(=O)N/N=C1\C(=O)N(C)c2ccccc21`, on Caspase-3, the IC50 turned out to be 278 µM.

As to `COc1ccccc1-c1ccc(C(=O)N/N=C2\C(=O)N(C)c3ccccc32)c(C)n1`, the IC50 on Caspase-7 was more than 200 µM; on Caspase-3, 552 µM.

`COc1ccc(-c2ccc(C(=O)N/N=C3\C(=O)N(C)c4ccccc43)c(C)n2)cc1`: the results for the IC50 at Caspase-7 and at Caspase-3 were more than 200 µM and 487 µM, respectively.

Turning to `Cc1cccc(-c2ccc(C(=O)N/N=C3\C(=O)N(C)c4ccccc43)c(C)n2)c1`, the IC50 at Caspase-3 amounted to 310 µM.

In the case of `Cc1nc(-c2ccc(F)cc2)ccc1C(=O)N/N=C1\C(=O)N(C)c2ccccc21`, the result in the assay with Rattus norvegicus [1], in the assay on Rattus norvegicus [2], with Rattus norvegicus [3], in the assay on Rattus norvegicus [4], in the assay with Rattus norvegicus [5] and with Rattus norvegicus [6] was Active. For the same compound, the result in the assay with Rattus norvegicus [7] and in the assay with Rattus norvegicus [12] was Active. The IC50 at Caspase-7 is more than 200 µM. Moreover, the Activity entry in the assay on Rattus norvegicus [8], with Rattus norvegicus [9], in the assay on Rattus norvegicus [10] and with Rattus norvegicus [11] was “Dose-dependent effect” in each case. For the same compound, the inhibition result in the assay filed under Rattus norvegicus [13] is “Active”.

Turning to `Cc1nc(-c2ccccc2Br)ccc1C(=O)N/N=C1\C(=O)N(C)c2ccccc21`, at Caspase-3, the IC50 was 132 µM.

Turning to `Cc1nc(-c2ccccc2[N+](=O)[O-])ccc1C(=O)N/N=C1\C(=O)N(C)c2ccccc21`, the IC50 on Caspase-7 is more than 200 µM; at Caspase-3 it was 297 µM.

With `Cc1nc(-c2ccccc2)ccc1C(=O)N/N=C1\C(=O)N(C)c2ccccc21`, the IC50 on Caspase-3 was 456 µM.

Take `Cc1nc(-c2cccc(Cl)c2)ccc1C(=O)N/N=C1\C(=O)N(C)c2ccccc21`: the concentration for half-maximal inhibition (IC50) at Caspase-7 was more than 200 µM.

For the compound `Cc1nc(-c2ccc(Br)cc2)ccc1C(=O)N/N=C1\C(=O)N(C)c2ccccc21`, the half-inhibitory concentration (IC50) at Caspase-3 amounted to 122 µM.

On to `COc1cc(-c2ccc(C(=O)N/N=C3\C(=O)N(C)c4ccccc43)c(C)n2)cc(OC)c1OC`, for which the IC50 at Caspase-3 worked out at 674 µM.

As to `CC(=O)N[C@@H](CC(=O)O)C(=O)N[C@@H](CCC(=O)O)C(=O)N[C@H](C(=O)N[C@H](C=O)CC(=O)O)C(C)C`, the concentration for half-maximal inhibition (IC50) on Caspase-7 stood at 0.0604 µM.

`COc1ccc(-c2ccc(C(=O)N/N=C3\C(=O)N(C)c4ccccc43)c(C)n2)cc1OC`: the IC50 at Caspase-7 was more than 200 µM; at Caspase-3, 599 µM.

Consider `Cc1ccccc1-c1ccc(C(=O)N/N=C2\C(=O)N(C)c3ccccc32)c(C)n1`, for which, on Caspase-3, the IC50 stood at 351 µM.

Regarding `Cc1nc(-c2ccc([N+](=O)[O-])cc2)ccc1C(=O)N/N=C1\C(=O)N(C)c2ccccc21`, the 50% inhibitory concentration (IC50) at Caspase-3 turned out to be 202 µM.

Turning to `Cc1nc(-c2cccc(Br)c2)ccc1C(=O)N/N=C1\C(=O)N(C)c2ccccc21`, at Caspase-3, the IC50 stood at 130 µM.

For the compound `Cc1ccc(-c2ccc(C(=O)N/N=C3\C(=O)N(C)c4ccccc43)c(C)n2)cc1`, at Caspase-3, the IC50 is 375 µM.

Take `COc1cccc(-c2ccc(C(=O)N/N=C3\C(=O)N(C)c4ccccc43)c(C)n2)c1`: the concentration for half-maximal inhibition (IC50) on Caspase-7 is more than 200 µM; at Caspase-3, 547 µM.
